Holding throughout (type): cell-based, human
One assay has as its system hESCs. Briefly: Differentiation of hESC free-floating clusters into pigmented (RPE) cells, counted as pigmented clusters and cells. The procedure: Human ESC (HES1 cell line) and hESCs engineered by lentiviral vector to constitutively express eGFP [Gropp M, Itsykson P, Singer O, Ben-Hur T, Reinhartz E, Galun E, and Reubinoff B E. Stable genetic modification of human embryonic stem cells by lentiviral vectors. Molecular Therapy 7:281-7 (2003)] were cultured on human foreskin fibroblasts feeder layers in KO medium (KOM) consisting of 86% KO-DMEM (Gibco, Invitrogen, Gaithersburg, Md.), 14% KOSR (Gibco), 1 mM glutamine, 1% nonessential amino acids, 50 units/ml penicillin (Gibco), 50 μg/ml streptomycin, (Gibco) and 4 ng/ml bFGF (R&D Systems, Inc., Minneapolis, Minn.). hES cells were weekly passaged with type IV collagenase (1 mg/ml; Gibco) and plated onto a fresh feeder layer. A week before induction of differentiation, the cells were passaged by dissociation into nearly a single-cell suspension with Ca/Mg^++-free PBS supplemented with 0.05% EDTA (Biological Industries, Beit Haemek, Israel) and were re-plated on the feeders.
Six-eight days after plating the hES cells that were dissociated into single cells as above; they were removed from the feeders by treatment with type IV collagenase. The clumps were cultured for various periods up to 12 weeks in suspension within bacteriological dishes precoated with 0.1% low melting temperature agarose in KO medium (KOM) consisting of 86% KO-DMEM, 14% KOSR, 1 mM glutamine, 1% nonessential amino acids, 50 units/ml penicillin, and 50 μg/ml streptomycin, in the presence or absence of 10 mM nicotinamide (NA) (Sigma, St. Louis, Mo., USA). In some experiments the medium used was Neurobasal™ medium (Gibco) supplemented with N2 supplement (1:100) (Gibco) (NN medium), which was substituted after 1 week with DMEM/F12 (Gibco) supplemented with B27 (1:50) (Gibco).
Human ESCs were allowed to differentiate as free-floating clusters in KOM as above for up to six weeks in the presence of nicotinamide (NA) 10 mM. After the first week or 2 weeks of differentiation, cultures were supplemented with activin A 20-180 ng/ml (PeproTech Inc, Rocky Hill, N.J.), with TGFβ3 (1 ng/ml; R&D Systems Inc, Minneapolis, Minn.) with TGFβ1 (1 ng/ml-20 ng/ml; R&D Systems Inc) or with SB431542 (5 μM-50 μM, Sigma). Control cultures were supplemented with NA alone.
Human ESCs in suspension in KOM were also supplemented after one week with the bone morphogenetic protein (BMP) antagonist noggin (700 ng/ml R&D Systems Inc, Minneapolis, Minn.) in the presence and absence of NA, or during the 3rd and 4th weeks with TGFβ (20 ng/ml PeproTech Inc) in the presence of NA and allowed to differentiate up to an age of 6 weeks as free-floating clusters in suspension.

Another assay has as its system hESC-derived clusters. The assay can be described thus: Flow cytometry of PSA-NCAM and TRA-1-60 positive cells in hESC-derived clusters. The procedure: Flow cytometric analysis was performed to determine the number of PSA-NCAM and TRA-1-60 positive cells at different time points within the hESC-derived clusters differentiating with or without nicotinamide supplementation. The clusters were dissociated with 0.04% Trypsin/0.04% EDTA. The single cells were then stained with anti-PSA-NCAM or anti-Tra-1-60 antibodies (both from Chemicon; 1:100), detected with goat anti-mouse immunoglobulins conjugated to FITC (Dako; 1:100), and counterstained with the cell viability dye Propidium iodide (0.005 mg/ml; Sigma) Control cells were incubated only with a secondary antibody. The cell-associated immunoreactivity was analyzed with FACScalibur (Becton Dickinson Immunocytometry Systems), using CellQuest software.
A general note: In flow cytometry, cells or beads pass a laser one at a time.

The subject of the next assay is hESC clusters. Briefly: Indirect immunofluorescent staining of differentiated cells within clusters. The protocol:
To characterize the immunophenotype of cells within the aggregates, the clusters cultivated for 2, 4, 6 or 8 weeks were gently dissociated either with 0.04% trypsin/0.04% EDTA or with Papain Dissociation System (Worthington Biochemical, Lakewood, N.J.), and the resulting small clumps and single cells were plated in KO medium supplemented with NA on poly-D-lysine (30-70 kDa, 10-20 μg/ml) alone or supplemented with either laminin (4 μg/ml) or fibronectin (10-20 μg/ml; all from Sigma, St. Louis, http://www.sigmaaldrich.com). The cells were fixed with 4% paraformaldehyde after 2 hours and examined for the expression of nestin (1:200), polysialic acid NCAM (PSA-NCAM) (1:100), Musashi (1:200; all from Chemicon, Temecula, from CA), Pax6 (DSHB, 1:100 or Chemicon, 1:250), Otx2 (Chemicon, 1:200), MiTF (Lab Vision Corporation, Fremont, Calif.; mouse IgG1, 1:50).

Setting [1] is: 4 weeks, NA with activin A vs NA without activin A.
The mark [2] stands for this setting: 8 weeks of differentiation in presence of NA.
The mark [3] stands for this setting: at 4 weeks, NA-treated clusters.

Take `NC(=O)c1cccnc1` [NA, nicotinamide]: in the assay with hESCs (setting [1]), the “percentage of clusters that included pigmented cells” value came to 17.7±3.2% and the “percentage of pigmented cells from the total number of cells” value is reported as 2.4±1.2%. The “percentage of cells that were pigmented within clusters” value in the assay with hESCs (setting [2]) is listed as 5.7±1.0%. The “percentage of clusters that had pigmented areas” value with hESCs (after 8 weeks of differentiation, KO medium with NA 10 mM) is reported as 72.9±2.5%. Besides, in the assay with hESC-derived clusters (FACS time course, NA treated vs untreated), the “expression of TRA-1-60 (surface marker of undifferentiated cells)” value is given as “declined more rapidly”. Further, the “percentage of cells expressing PSA-NCAM (FACS)” value in the assay on hESC-derived clusters (after 4 weeks of differentiation with NA) is given as 81.4±6.3%. In the assay with hESC clusters (setting [2]), the “percentage of cells expressing the early RPE marker MiTF” value stood at 5.4±1.1%. In addition, in the assay with hESC clusters (setting [3]), the “percentage of cells expressing Musashi (immunofluorescence)” value is 71.4%, the “percentage of cells expressing PSA-NCAM (immunofluorescence)” value was found to be 74.2±4.1% and the “percentage of cells expressing nestin (immunofluorescence)” value was 55.9±10.1%.

Values taken from patent US20150125506A1, “RETINAL PIGMENT EPITHELIAL CELLS DIFFERENTIATED FROM EMBRYONIC STEM CELLS WITH NICOTINAMIDE AND ACTIVIN A” (HADASIT MEDICAL RESEARCH SERVICES AND DEVELOPMENT LTD., priority 2007, published 2015).
